{"source": "patent US20090068290A1", "about": "“BIFEPRUNOX DOSES FOR TREATING SCHIZOPHRENIA” (priority 2006, published 2009)", "type_in_all_cases": "in vivo, human", "key": {"[1]": {"tested_on": "adult subjects with schizophrenia", "assay": "PANSS responder rate, Clinical Study Two", "details": "for PANSS 20% responder rate / PANSS 30% responder rate: Endpoint LOCF; for PANSS Responder at Endpoint, 30% Definition Responder, No / PANSS Responder at Endpoint, 30% Definition Responder, Yes / PANSS Responder at Week 6/Endpoint, 20% Definition, No / PANSS Responder at Week 6/Endpoint, 20% Definition, Yes: LOCF, ITT", "experimental": "Notable differences were also observed between the 30 mg bifeprunox group and placebo for the change from baseline to endpoint in PANSS general psychopathology subscale score, BPRS total score, BPRS psychosis cluster score, PANSS responder rate, and CGI-I responder rate. […] A CGI-I responder refers to a subject who was categorized as “very much improved” or “much improved” in the CGI Global Improvement scale at endpoint. […]\nSubjects who completed this study had the option to continue in the long-term. […] Risperidone-treated subjects were titrated from 2 mg to 6 mg daily over a three-day period and were subsequently maintained at 6 mg/day for the remainder of the treatment period. […] Blood samples were also obtained at Screening/Baseline, Week 3, and Week 6 for clinical laboratory assessments. […]"}, "[2]": {"tested_on": "adult subjects with schizophrenia", "assay": "PANSS total score, Clinical Study Three (6-week, olanzapine-referenced)", "details": "for Change from Baseline in PANSS Total Score, Mean (SD) / Change from Baseline in PANSS Total Score, Median / PANSS Total Score, Trt Effect (difference between bifeprunox and placebo): LOCF, ITT; for PANSS Total Score, Trt Effect (difference between bifeprunox and placebo): ANCOVA", "experimental": "There were four treatment arms in this study, approximately 144 subjects per arm. […] After completing the Single-Blind Placebo Lead-in Period of at least three days, bifeprunox-treated subjects were titrated from 0.25 mg up to 20 mg/day or 30 mg/day according to a standardized titration scheme over a seven- or eight-day period, respectively. When the assigned dose was reached, subjects were maintained at that dose for the remainder of the six week treatment period. […] Subjects were hospitalized (if not already inpatients) after eligibility for study entry was verified, starting from the Screening Visit until at least 10 days after Baseline. Subjects could be hospitalized longer than 10 days if considered medically necessary by the Investigator. Rating scale assessments for efficacy and abnormal movement disorders were done weekly except for Week 5. Safety assessments were performed at Screening, during treatment and at the end of the study. Subject satisfaction with study medication was assessed at Week 6. Samples of whole blood were obtained at Weeks 2, 4, and 6 for determination of bifeprunox in plasma.\nTest Product, Dose and Mode of Administration: Bifeprunox tablets, total daily dose 20 mg or 30 mg (one 20 mg tablet and one 10 mg tablet) administered orally using a once daily dosing regimen."}, "[3]": {"tested_on": "adult subjects with schizophrenia", "assay": "Adverse events (TEAE, SAE, discontinuation, EPS-related TEAE, anticholinergic use), Clinical Study One", "experimental": "METHODOLOGY: This was a randomized, double-blind, fixed-dose, placebo-controlled, risperidone-referenced, parallel group, multi-center study in adult subjects with schizophrenia. There were five treatment groups in this study. […] Study medication was administered once daily. After Baseline measurements were performed, the titration phase was begun. Bifeprunox treated subjects were titrated up to 5 mg, 10 mg or 20 mg according to a standardized titration schedule (Day 1: 0.125 mg, Day 2: 0.25 mg, Day 3: 0.5 mg, Day 4: 1.0 mg, Day 5: 2.0 mg, Day 6: 5.0 mg, Day 7: 10.0 mg, Day 8: 20 mg)."}, "[4]": {"details": "Bifeprunox 20 mg, Week 6/Endpoint"}, "[5]": {"details": "Bifeprunox 30 mg, Week 6/Endpoint"}}}
{"smiles": "O=c1[nH]c2cccc(N3CCN(Cc4cccc(-c5ccccc5)c4)CC3)c2o1", "note": "[Bifeprunox, 7-[4-([1,1′-biphenyl]-3-ylmethyl)-1-piperazinyl]-2(3H)-benzoxazolone]", "values": [{"measurement": "PANSS 20% responder rate", "setting": "[1]; bifeprunox 30 mg", "result": 36, "unit": "%"}, {"measurement": "PANSS 30% responder rate", "setting": "[1]; bifeprunox 30 mg", "result": 24, "unit": "%"}, {"measurement": "PANSS Responder at Endpoint, 30% Definition Responder, No", "setting": "[1]; bifeprunox 30 mg", "result": "106 (76%) n (%)"}, {"measurement": "PANSS Responder at Endpoint, 30% Definition Responder, Yes", "setting": "[1]; bifeprunox 30 mg", "result": "34 (24%) n (%)"}, {"measurement": "PANSS Responder at Week 6/Endpoint, 20% Definition, No", "setting": "[1]; bifeprunox 30 mg", "result": "89 (64%) n (%)"}, {"measurement": "PANSS Responder at Week 6/Endpoint, 20% Definition, Yes", "setting": "[1]; bifeprunox 30 mg", "result": "51 (36%) n (%)"}, {"measurement": "PANSS 20% responder rate", "setting": "[1]; bifeprunox 40 mg", "result": 30, "unit": "%"}, {"measurement": "PANSS 30% responder rate", "setting": "[1]; bifeprunox 40 mg", "result": 22, "unit": "%"}, {"measurement": "PANSS Responder at Endpoint, 30% Definition Responder, No", "setting": "[1]; bifeprunox 40 mg", "result": "110 (78%) n (%)"}, {"measurement": "PANSS Responder at Endpoint, 30% Definition Responder, Yes", "setting": "[1]; bifeprunox 40 mg", "result": "31 (22%) n (%)"}, {"measurement": "PANSS Responder at Week 6/Endpoint, 20% Definition, No", "setting": "[1]; bifeprunox 40 mg", "result": "99 (70%) n (%)"}, {"measurement": "PANSS Responder at Week 6/Endpoint, 20% Definition, Yes", "setting": "[1]; bifeprunox 40 mg", "result": "42 (30%) n (%)"}, {"measurement": "Change from Baseline in PANSS Total Score, Mean (SD)", "setting": "[2]; Bifeprunox 20 mg, Week 1", "result": "−5.6 (11.7)"}, {"measurement": "Change from Baseline in PANSS Total Score, Median", "setting": "[2]; Bifeprunox 20 mg, Week 1", "result": "−5"}, {"measurement": "Change from Baseline in PANSS Total Score, Mean (SD)", "setting": "[2]; Bifeprunox 20 mg, Week 2", "result": "−10.2 (14.8)"}, {"measurement": "Change from Baseline in PANSS Total Score, Median", "setting": "[2]; Bifeprunox 20 mg, Week 2", "result": "−10"}, {"measurement": "Change from Baseline in PANSS Total Score, Mean (SD)", "setting": "[2]; Bifeprunox 20 mg, Week 3", "result": "−12.6 (16.9)"}, {"measurement": "Change from Baseline in PANSS Total Score, Median", "setting": "[2]; Bifeprunox 20 mg, Week 3", "result": "−13"}, {"measurement": "Change from Baseline in PANSS Total Score, Mean (SD)", "setting": "[2]; Bifeprunox 20 mg, Week 4", "result": "−13.3 (18.7)"}, {"measurement": "Change from Baseline in PANSS Total Score, Median", "setting": "[2]; Bifeprunox 20 mg, Week 4", "result": "−13"}, {"measurement": "Change from Baseline in PANSS Total Score, Mean (SD)", "setting": "[2]; [4]", "result": "−13.8 (19.9)"}, {"measurement": "Change from Baseline in PANSS Total Score, Median", "setting": "[2]; [4]", "result": "−14"}, {"measurement": "PANSS Total Score, Trt Effect (difference between bifeprunox and placebo)", "setting": "[2]; [4]", "result": "−3.5"}, {"measurement": "Change from Baseline in PANSS Total Score, Median", "setting": "[2]; Bifeprunox 30 mg, Week 1", "result": "−6"}, {"measurement": "Change from Baseline in PANSS Total Score, Mean (SD)", "setting": "[2]; Bifeprunox 30 mg, Week 2", "result": "−8.5 (15.6)"}, {"measurement": "Change from Baseline in PANSS Total Score, Median", "setting": "[2]; Bifeprunox 30 mg, Week 2", "result": "−9"}, {"measurement": "Change from Baseline in PANSS Total Score, Mean (SD)", "setting": "[2]; Bifeprunox 30 mg, Week 3", "result": "−11.1 (18.0)"}, {"measurement": "Change from Baseline in PANSS Total Score, Median", "setting": "[2]; Bifeprunox 30 mg, Week 3", "result": "−11"}, {"measurement": "Change from Baseline in PANSS Total Score, Mean (SD)", "setting": "[2]; Bifeprunox 30 mg, Week 4", "result": "−12.0 (18.6)"}, {"measurement": "Change from Baseline in PANSS Total Score, Median", "setting": "[2]; Bifeprunox 30 mg, Week 4", "result": "−13"}, {"measurement": "Change from Baseline in PANSS Total Score, Mean (SD)", "setting": "[2]; [5]", "result": "−13.1 (20.2)"}, {"measurement": "Change from Baseline in PANSS Total Score, Median", "setting": "[2]; [5]", "result": "−13"}, {"measurement": "PANSS Total Score, Trt Effect (difference between bifeprunox and placebo)", "setting": "[2]; [5]", "result": "−2.2"}, {"measurement": "efficacy compared to placebo, primary and key secondary efficacy parameters", "setting": "[2]; bifeprunox 20 mg and 30 mg, Endpoint", "result": "did not demonstrate efficacy as compared to the placebo group"}, {"measurement": "TEAE Akathisia, %", "setting": "[3]; 5 mg, Safety Population", "result": "(<1%)"}, {"measurement": "TEAE Benign Skin Neoplasm Nos, %", "setting": "[3]; 5 mg, Safety Population", "result": "(<1%)"}, {"measurement": "TEAE Muscle Stiffness, %", "setting": "[3]; 5 mg, Safety Population", "result": "(<1%)"}, {"measurement": "TEAE Muscle Tightness, %", "setting": "[3]; 5 mg, Safety Population", "result": "(<1%)"}, {"measurement": "TEAE Muscle Twitching, %", "setting": "[3]; 5 mg, Safety Population", "result": "(2%)"}, {"measurement": "TEAE NEOPLASMS BENIGN, MALIGNANT AND UNSPECIFIED (INCL CYSTS AND POLYPS), %", "setting": "[3]; 5 mg, Safety Population", "result": "(2%)"}, {"measurement": "TEAE NERVOUS SYSTEM DISORDERS, %", "setting": "[3]; 5 mg, Safety Population", "result": "(48%)"}, {"measurement": "TEAE Neck Pain, %", "setting": "[3]; 5 mg, Safety Population", "result": "(<1%)"}, {"measurement": "TEAE Pain in Jaw, %", "setting": "[3]; 5 mg, Safety Population", "result": "(<1%)"}, {"measurement": "TEAE Pain in Limb, %", "setting": "[3]; 5 mg, Safety Population", "result": "(<1%)"}, {"measurement": "TEAE Skin Papilloma, %", "setting": "[3]; 5 mg, Safety Population", "result": "(<1%)"}, {"measurement": "TEAE Akathisia, %", "setting": "[3]; 10 mg, Safety Population", "result": "(2%)"}, {"measurement": "TEAE Muscle Stiffness, %", "setting": "[3]; 10 mg, Safety Population", "result": "(<1%)"}, {"measurement": "TEAE Muscle Twitching, %", "setting": "[3]; 10 mg, Safety Population", "result": "(<1%)"}, {"measurement": "TEAE Musculoskeletal Discomfort, %", "setting": "[3]; 10 mg, Safety Population", "result": "(<1%)"}, {"measurement": "TEAE Myalgia, %", "setting": "[3]; 10 mg, Safety Population", "result": "(<1%)"}, {"measurement": "TEAE NERVOUS SYSTEM DISORDERS, %", "setting": "[3]; 10 mg, Safety Population", "result": "(50%)"}, {"measurement": "TEAE Neck Pain, %", "setting": "[3]; 10 mg, Safety Population", "result": "(3%)"}, {"measurement": "TEAE Pain in Jaw, %", "setting": "[3]; 10 mg, Safety Population", "result": "(<1%)"}, {"measurement": "TEAE Pain in Limb, %", "setting": "[3]; 10 mg, Safety Population", "result": "(2%)"}, {"measurement": "TEAE Akathisia, %", "setting": "[3]; 20 mg, Safety Population", "result": "(3%)"}, {"measurement": "TEAE Muscle Spasms, %", "setting": "[3]; 20 mg, Safety Population", "result": "(2%)"}, {"measurement": "TEAE Muscle Twitching, %", "setting": "[3]; 20 mg, Safety Population", "result": "(<1%)"}, {"measurement": "TEAE Myalgia, %", "setting": "[3]; 20 mg, Safety Population", "result": "(<1%)"}, {"measurement": "TEAE NERVOUS SYSTEM DISORDERS, %", "setting": "[3]; 20 mg, Safety Population", "result": "(43%)"}, {"measurement": "TEAE Neck Pain, %", "setting": "[3]; 20 mg, Safety Population", "result": "(2%)"}, {"measurement": "TEAE Pain in Limb, %", "setting": "[3]; 20 mg, Safety Population", "result": "(3%)"}, {"measurement": "TEAE Sensation of Heaviness, %", "setting": "[3]; 20 mg, Safety Population", "result": "(<1%)"}, {"measurement": "Acute Psychosis, %", "setting": "[3]; BX 5 mg", "result": "(<1%)"}, {"measurement": "Aggression, %", "setting": "[3]; BX 5 mg", "result": "(<1%)"}, {"measurement": "Agitation Aggravated, %", "setting": "[3]; BX 5 mg", "result": "(4%)"}, {"measurement": "Agitation, %", "setting": "[3]; BX 5 mg", "result": "(11%)"}, {"measurement": "Anxiety Aggravated, %", "setting": "[3]; BX 5 mg", "result": "(3%)"}]}
